From patent US12077534B2, “Aza-heterobicyclic inhibitors of MAT2A and methods of use for treating cancer” (Les Laboratoires Servier SAS, priority 2018, dated 2024)

Tests used:
HCT116 MTAP−/− = experiment: Inhibition of cellular proliferation (Cell Titer Glo), HCT116 MTAP-/-; format: cell-based; settings: Homo sapiens, HCT-116, 96 h, 4 days, read-out: 4 Day Relative Growth Inhibition (MTAP −/−)
Summary of the method: (§1)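 Isogenic HCT116 MTAP+/+ and MTAP−/− cells treated 24 h after plating with 10-point 3-fold dilutions, then grown 4 days at 37 °C/5% CO2. ATP content read by Cell Titer Glo luminescence, blank-subtracted and normalized to 0.2% DMSO control, plotted as percent proliferation change versus log molar concentration.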

HCT116 MTAP+/+ = experiment: Inhibition of cellular proliferation (Cell Titer Glo), HCT116 MTAP+/+; format: cell-based; settings: Homo sapiens, HCT-116, 96 h, 4 days, read-out: 4 Day Relative Growth Inhibition (MTAP +/+)
Summary of the method: as §1

MAT2A homodimer = target: T1, MAT2A homodimer (Homo sapiens, UniProt P31153); experiment: MAT2A biochemical assay (phosphate release, PiColorLock Gold); settings: recombinant MAT2A homodimer, 60 min pre-incubation, 25° C.; read-out: Enzyme Inhibition
T1 construct: inferred from Ni sepharose purification and imidazole elution; made in house; host or cells: SF9 insect cells, recombinant baculovirus (Bac to Bac, pFASTBAC1)
Summary of the method: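 Baculovirus/Sf9-expressed, Ni-purified MAT2A homodimer (4 µg/mL in pH 8.0 Tris/KCl/MgCl2 buffer) preincubated 60 min at 25 °C with compound (2% DMSO final). Substrate mix of 500 µM ATP and 400 µM L-methionine added; 60 min at 25 °C; released phosphate quantified colorimetrically against a phosphate standard curve.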

[1] = test system: MAT2A activity (SAM) in HCT116 cells with deleted MTAP gene; experiment: Cellular assay of target engagement (SAM) by LC-MS/MS; format: cell-based; settings: Homo sapiens, HCT-116; HCT116 MTAP −/−, 72 hrs; read-out: Cell 72 h SAM Inhibition (MTAP −/−)
Summary of the method: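 HCT116 MTAP-deleted cells treated with 10-point 3-fold DMSO serial dilutions of compound for 72 hrs at 37° C. Cells lysed in cold 80% methanol/acetic acid extraction buffer with d3-SAM internal standard; SAM quantified by LC-MS/MS (MRM m/z 399.2→250.1).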

T1 sequence (P31153 whole entry): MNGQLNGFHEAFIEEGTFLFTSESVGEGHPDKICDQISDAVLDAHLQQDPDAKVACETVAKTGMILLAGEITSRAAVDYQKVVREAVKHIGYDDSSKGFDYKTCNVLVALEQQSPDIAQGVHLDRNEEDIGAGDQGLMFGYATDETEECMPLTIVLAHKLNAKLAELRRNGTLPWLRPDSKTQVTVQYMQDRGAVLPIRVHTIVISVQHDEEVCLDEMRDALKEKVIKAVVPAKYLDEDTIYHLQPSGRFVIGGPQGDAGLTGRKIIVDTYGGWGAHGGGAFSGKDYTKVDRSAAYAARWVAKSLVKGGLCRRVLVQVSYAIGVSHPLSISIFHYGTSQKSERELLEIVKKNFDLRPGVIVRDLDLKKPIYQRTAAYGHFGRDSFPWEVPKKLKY

SMILES | IC50 (HCT116 MTAP−/−) [µM] | IC50 (HCT116 MTAP+/+) [µM] | IC50 (MAT2A homodimer) [µM] | IC50 [1] [µM]
Cn1cc2cc(-n3nc4ccc(OCC(F)F)nc4c(-c4ccc(Br)cc4)c3=O)ccc2n1 [Example 200, 4-(4-bromophenyl)-6-(2,2-difluoroethoxy)-2-(2-methyl-2H-indazol-5-yl)pyrido[3,2-c]pyridazin-3(2H)-one] | < 0.1 | ≥ 1 | < 0.1 | < 0.1
O=c1c(-c2ccc(Br)cc2)c2nc(OCC(F)F)ccc2nn1-c1ccc2ncsc2c1 [Example 201, 2-(benzo[d]thiazol-6-yl)-4-(4-bromophenyl)-6-(2,2-difluoroethoxy)pyrido[3,2-c]pyridazin-3(2H)-one] | < 0.1 | ≥ 1 | < 0.1 | < 0.1
CC(C)Oc1ccc2nn(-c3ccc4ncsc4c3)c(=O)c(-c3ccc(Br)cc3)c2n1 [Example 202, 2-(benzo[d]thiazol-6-yl)-4-(4-bromophenyl)-6-isopropoxypyrido[3,2-c]pyridazin-3(2H)-one] | < 0.1 | ≥ 1 | < 0.1 | < 0.1
CN(C)c1c2cc(-n3nc4ccc(OCC(F)F)nc4c(-c4ccc(OC(F)F)cc4)c3=O)ccc2nn1C [Example 203, 6-(2,2-difluoroethoxy)-4-(4-(difluoromethoxy)phenyl)-2-(3-(dimethylamino)-2-methyl-2H-indazol-5-yl)pyrido[3,2-c]pyridazin-3(2H)-one] | < 0.1 | 0.1 to 1 | < 0.1 | < 0.1
CCCc1ccc2nn(-c3ccc4nn(C)cc4c3)c(=O)c(-c3ccc(OC(F)F)cc3)c2n1 [Example 205, 4-(4-(difluoromethoxy)phenyl)-2-(2-methyl-2H-indazol-5-yl)-6-propylpyrido[3,2-c]pyridazin-3(2H)-one] | < 0.1 | ≥ 1 | < 0.1 | < 0.1
Cn1cc2cc(-n3nc4ccc(OCC(F)F)nc4c(C4CCCCC4)c3=O)ccc2n1 [Example 206, 4-cyclohexyl-6-(2,2-difluoroethoxy)-2-(2-methyl-2H-indazol-5-yl)pyrido[3,2-c]pyridazin-3(2H)-one] | 0.1 to 1 | ≥ 1 | < 0.1 | 0.1 to 1
Cn1cc2cc(-n3nc4ccc(OCC(F)F)nc4c(-c4ccc(O)cc4)c3=O)ccc2n1 [Example 207, 6-(2,2-difluoroethoxy)-4-(4-hydroxyphenyl)-2-(2-methyl-2H-indazol-5-yl)pyrido[3,2-c]pyridazin-3(2H)-one] | 0.1 to 1 | ≥ 1 | < 0.1 | < 0.1
CCc1c2cc(-n3nc4ccc(OCC(F)F)nc4c(-c4ccc(OC(F)F)cc4)c3=O)ccc2nn1C [Example 208, 6-(2,2-difluoroethoxy)-4-(4-(difluoromethoxy)phenyl)-2-(3-ethyl-2-methyl-2H-indazol-5-yl)pyrido[3,2-c]pyridazin-3(2H)-one] | < 0.1 | 0.1 to 1 | < 0.1 | < 0.1
Cn1cc2cc(-n3nc4c(CO)cc(OCC(F)F)nc4c(-c4ccc(OC(F)F)cc4)c3=O)ccc2n1 [Example 209, 6-(2,2-difluoroethoxy)-4-(4-(difluoromethoxy)phenyl)-8-(hydroxymethyl)-2-(2-methyl-2H-indazol-5-yl)pyrido[3,2-c]pyridazin-3(2H)-one] | < 0.1 | ≥ 1 | < 0.1 | < 0.1
Cn1cc2cc(-n3nc4c(C(F)F)cc(OCC(F)F)nc4c(-c4ccc(OC(F)F)cc4)c3=O)ccc2n1 [Example 210, 6-(2,2-difluoroethoxy)-4-(4-(difluoromethoxy)phenyl)-8-(difluoromethyl)-2-(2-methyl-2H-indazol-5-yl)pyrido[3,2-c]pyridazin-3(2H)-one] | 0.1 to 1 | ≥ 1 | < 0.1 | < 0.1
CN(C)Cc1cc(OCC(F)F)nc2c(-c3ccc(OC(F)F)cc3)c(=O)n(-c3ccc4nn(C)cc4c3)nc12 [Example 211, 6-(2,2-difluoroethoxy)-4-(4-(difluoromethoxy)phenyl)-8-((dimethylamino)methyl)-2-(2-methyl-2H-indazol-5-yl)pyrido[3,2-c]pyridazin-3(2H)-one] | 0.1 to 1 | ≥ 1 | < 0.1 | 0.1 to 1
Cn1cc2cc(-n3nc4c(N)cc(OCC(F)F)nc4c(-c4ccc(OC(F)F)cc4)c3=O)ccc2n1 [Example 212, 8-amino-6-(2,2-difluoroethoxy)-4-(4-(difluoromethoxy)phenyl)-2-(2-methyl-2H-indazol-5-yl)pyrido[3,2-c]pyridazin-3(2H)-one] | < 0.1 | 0.1 to 1 | < 0.1 | < 0.1
C#Cc1c(=O)n(-c2ccc3nn(C)cc3c2)nc2ccc(OCC(F)F)nc12 [Example 214, 6-(2,2-difluoroethoxy)-4-ethynyl-2-(2-methyl-2H-indazol-5-yl)pyrido[3,2-c]pyridazin-3(2H)-one] | ≥ 1 | ≥ 1 | 0.1 to 1 | > 1
Cn1cc2cc(-n3nc4ccc(OCC(F)F)nc4c(C#Cc4cc[nH]n4)c3=O)ccc2n1 [Example 215, 4-((1H-pyrazol-3-yl)ethynyl)-6-(2,2-difluoroethoxy)-2-(2-methyl-2H-indazol-5-yl)pyrido[3,2-c]pyridazin-3(2H)-one] | 0.1 to 1 | ≥ 1 | < 0.1 | > 1
CCOc1ccc2nn(-c3ccc4nn(C)cc4c3)c(=O)c(-c3ccc(OC(F)F)cc3)c2n1 [Example 217, 4-(4-(difluoromethoxy)phenyl)-6-ethoxy-2-(2-methyl-2H-indazol-5-yl)pyrido[3,2-c]pyridazin-3(2H)-one] | < 0.1 | 0.1 to 1 | < 0.1 | < 0.1
Cc1ccc(-c2c(=O)n(-c3ccc4nn(C)cc4c3)nc3ccc(NCC(F)(F)F)nc23)cn1 [Example 301, 2-(2-methyl-2H-indazol-5-yl)-4-(6-methylpyridin-3-yl)-6-((2,2,2-trifluoroethyl)amino)pyrido[3,2-c]pyridazin-3(2H)-one] | < 0.1 | ≥ 1 | < 0.1 | < 0.1
Cc1ccc(-c2c(=O)n(-c3ccc4nn(C)cc4c3)nc3ccc(OCC4CC4)nc23)cn1 [Example 302] | < 0.1 | ≥ 1 | < 0.1 | < 0.1
Cn1cc2cc(-n3nc4ccc(OCC5CC5)nc4c(-c4ccc(C5CC5)nc4)c3=O)ccc2n1 [Example 303] | < 0.1 | ≥ 1 | < 0.1 | < 0.1
O=c1c(-c2ccc(C3CC3)cc2)c2nc(OCC(F)F)ccc2nn1-c1ccc2ncsc2c1 [Example 304] | 0.1 to 1 | 0.1 to 1 | < 0.1 | < 0.1
CCNc1ccc2nn(-c3ccc4nn(C)cc4c3)c(=O)c(-c3ccc(C)nc3)c2n1 [Example 305] | < 0.1 | ≥ 1 | < 0.1 | < 0.1
CCNc1ccc2nn(-c3ccc4nn(C)cc4c3)c(=O)c(-c3ccc(OC)nc3)c2n1 [Example 307] | < 0.1 | ≥ 1 | < 0.1 | < 0.1
CCNc1ccc2nn(-c3ccc4nn(C)cc4c3)c(=O)c(-c3ccc(C4CC4)nc3)c2n1 [Example 309] | < 0.1 | ≥ 1 | < 0.1 | < 0.1
CCNc1ccc2nn(-c3ccc4nn(C)cc4c3)c(=O)c(-c3ccc(C(F)F)nc3)c2n1 [Example 310] | < 0.1 | ≥ 1 | < 0.1 | < 0.1
CCNc1ccc2nn(-c3ccc4nn(C)cc4c3)c(=O)c(-c3ccc(OC(F)F)nc3)c2n1 [Example 313] | < 0.1 | 0.1 to 1 | < 0.1 | < 0.1
Cn1cc2cc(-n3nc4ccc(NCC5CC5)nc4c(-c4ccc(C5CC5)nc4)c3=O)ccc2n1 [Example 315] | < 0.1 | ≥ 1 | < 0.1 | < 0.1
CCNc1ccc2nn(-c3ccc4nn(C)cc4c3)c(=O)c(-c3ccc(C(F)(F)F)nc3)c2n1 [Example 316] | < 0.1 | ≥ 1 | < 0.1 | < 0.1
Cn1cc2cc(-n3nc4ccc(NCC(F)(F)F)nc4c(-c4ccc(C(F)F)nc4)c3=O)ccc2n1 [Example 317] | < 0.1 | ≥ 1 | < 0.1 | < 0.1
Cc1ccc(-c2c(=O)n(-c3ccc4nn(C)cc4c3)nc3ccc(NCC(F)F)nc23)cn1 [Example 318] | < 0.1 | ≥ 1 | < 0.1 | < 0.1
Cn1cc2cc(-n3nc4ccc(NCC(F)F)nc4c(-c4ccc(C(F)F)nc4)c3=O)ccc2n1 [Example 319] | < 0.1 | ≥ 1 | < 0.1 | < 0.1
